Reference: ChEMBL document CHEMBL4138146, “A Schmidt rearrangement-mediated synthesis of novel tetrahydro-benzo[1,4]diazepin-5-ones as potential anticancer and antiprotozoal agents” (Eur J Med Chem, 2017)

Assays:
Format in all cases: functional
[1] = system: HL-60(TB); test: Growth inhibition of human HL-60(TB) cells assessed as cell growth at 10^-4 M incubated for 48 hrs by sulforhodamine B assay relative to control; conditions: HL-60, 48 h, read-out: Activity
[2] = system: NCI-H226; test: Growth inhibition of human NCI-H226 cells assessed as cell growth at 10^-7 M incubated for 48 hrs by sulforhodamine B assay relative to control; conditions: NCI-H226, 48 h, read-out: Activity
[3] = system: LOX IMVI; test: Growth inhibition of human LOXIMVI cells assessed as cell growth at 10^-4 M incubated for 48 hrs by sulforhodamine B assay relative to control; conditions: read-out: Activity
[4] = system: IGROV-1; test: Growth inhibition of human IGROV1 cells assessed as cell growth at 10^-5 M incubated for 48 hrs by sulforhodamine B assay relative to control; conditions: IGROV-1, 48 h, read-out: Activity
[5] = system: CAKI-1; test: Growth inhibition of human Caki1 cells assessed as cell growth at 10^-6 M incubated for 48 hrs by sulforhodamine B assay relative to control; conditions: CAKI-1, 48 h, read-out: Activity
[6] = system: MDA-MB-231; test: Growth inhibition of human MDA-MB-231 cells assessed as cell growth at 10^-7 M incubated for 48 hrs by sulforhodamine B assay relative to control; conditions: MDA-MB-231, 48 h, read-out: Activity
[7] = system: RPMI-8226; test: Growth inhibition of human RPMI8226 cells assessed as cell growth at 10^-5 M incubated for 48 hrs by sulforhodamine B assay relative to control; conditions: RPMI-8226, 48 h, read-out: Activity
[8] = system: UACC-257; test: Growth inhibition of human UACC257 cells assessed as cell growth at 10^-7 M incubated for 48 hrs by sulforhodamine B assay relative to control; conditions: UACC-257, 48 h, read-out: Activity
[9] = system: MDA-MB-435; test: Growth inhibition of human MDA-MB-435 cells assessed as cell growth at 10^-6 M incubated for 48 hrs by sulforhodamine B assay relative to control; conditions: MDA-MB-435, 48 h, read-out: Activity
[10] = system: SNB-19; test: Growth inhibition of human SNB19 cells assessed as cell growth at 10^-7 M incubated for 48 hrs by sulforhodamine B assay relative to control; conditions: SNB-19, 48 h, read-out: Activity
[11] = system: U-251; test: Growth inhibition of human U251 cells assessed as cell growth at 10^-5 M incubated for 48 hrs by sulforhodamine B assay relative to control; conditions: U-251, 48 h, read-out: Activity
[12] = system: MCF7; test: Growth inhibition of human MCF7 cells assessed as cell growth at 10^-4 M incubated for 48 hrs by sulforhodamine B assay relative to control; conditions: MCF7, 48 h, read-out: Activity
[13] = system: MDA-MB-468; test: Growth inhibition of human MDA-MB-468 cells assessed as cell growth at 10^-6 M incubated for 48 hrs by sulforhodamine B assay relative to control; conditions: MDA-MB-468, 48 h, read-out: Activity
[14] = system: BT-549; test: Growth inhibition of human BT549 cells assessed as cell growth at 10^-7 M incubated for 48 hrs by sulforhodamine B assay relative to control; conditions: BT-549, 48 h, read-out: Activity
[15] = system: K562; test: Growth inhibition of human K562 cells assessed as cell growth at 10^-7 M incubated for 48 hrs by sulforhodamine B assay relative to control; conditions: K562, 48 h, read-out: Activity
[16] = system: COLO 205; test: Growth inhibition of human COLO205 cells assessed as cell growth at 10^-6 M incubated for 48 hrs by sulforhodamine B assay relative to control; conditions: COLO 205, 48 h, read-out: Activity
[17] = system: HT-29; test: Growth inhibition of human HT-29 cells assessed as cell growth at 10^-6 M incubated for 48 hrs by sulforhodamine B assay relative to control; conditions: HT-29, 48 h, read-out: Activity
[18] = system: COLO 205; test: Growth inhibition of human COLO205 cells assessed as cell growth at 10^-4 M incubated for 48 hrs by sulforhodamine B assay relative to control; conditions: COLO 205, 48 h, read-out: Activity
[19] = system: HCT-15; test: Growth inhibition of human HCT15 cells assessed as cell growth at 10^-5 M incubated for 48 hrs by sulforhodamine B assay relative to control; conditions: HCT-15, 48 h, read-out: Activity
[20] = system: BT-549; test: Growth inhibition of human BT549 cells assessed as cell growth at 10^-4 M incubated for 48 hrs by sulforhodamine B assay relative to control; conditions: BT-549, 48 h, read-out: Activity
[21] = system: A498; test: Growth inhibition of human A498 cells assessed as cell growth at 10^-5 M incubated for 48 hrs by sulforhodamine B assay relative to control; conditions: A498, 48 h, read-out: Activity
[22] = system: MCF7; test: Growth inhibition of human MCF7 cells assessed as cell growth at 10^-6 M incubated for 48 hrs by sulforhodamine B assay relative to control; conditions: MCF7, 48 h, read-out: Activity
[23] = system: SR; test: Growth inhibition of human SR cells assessed as cell growth at 10^-4 M incubated for 48 hrs by sulforhodamine B assay relative to control; conditions: read-out: Activity
[24] = system: OVCAR-5; test: Growth inhibition of human OVCAR5 cells assessed as cell growth at 10^-7 M incubated for 48 hrs by sulforhodamine B assay relative to control; conditions: OVCAR-5, 48 h, read-out: Activity
[25] = system: LOX IMVI; test: Growth inhibition of human LOXIMVI cells assessed as cell growth at 10^-8 M incubated for 48 hrs by sulforhodamine B assay relative to control; conditions: read-out: Activity
[26] = system: M14; test: Growth inhibition of human M14 cells assessed as cell growth at 10^-4 M incubated for 48 hrs by sulforhodamine B assay relative to control; conditions: M14, 48 h, read-out: Activity
[27] = system: CAKI-1; test: Growth inhibition of human Caki1 cells assessed as cell growth at 10^-8 M incubated for 48 hrs by sulforhodamine B assay relative to control; conditions: CAKI-1, 48 h, read-out: Activity
[28] = system: OVCAR-8; test: Growth inhibition of human OVCAR8 cells assessed as cell growth at 10^-7 M incubated for 48 hrs by sulforhodamine B assay relative to control; conditions: OVCAR-8, 48 h, read-out: Activity
[29] = system: UACC-257; test: Growth inhibition of human UACC257 cells assessed as cell growth at 10^-6 M incubated for 48 hrs by sulforhodamine B assay relative to control; conditions: UACC-257, 48 h, read-out: Activity
[30] = system: K562; test: Growth inhibition of human K562 cells assessed as cell growth at 10^-8 M incubated for 48 hrs by sulforhodamine B assay relative to control; conditions: K562, 48 h, read-out: Activity
[31] = system: CAKI-1; test: Growth inhibition of human Caki1 cells assessed as cell growth at 10^-4 M incubated for 48 hrs by sulforhodamine B assay relative to control; conditions: CAKI-1, 48 h, read-out: Activity
[32] = system: A549; test: Growth inhibition of human A549/ATCC cells assessed as cell growth at 10^-6 M incubated for 48 hrs by sulforhodamine B assay relative to control; conditions: A549, 48 h, read-out: Activity
[33] = system: SNB-75; test: Growth inhibition of human SNB75 cells assessed as cell growth at 10^-8 M incubated for 48 hrs by sulforhodamine B assay relative to control; conditions: SNB-75, 48 h, read-out: Activity
[34] = system: RXF 393; test: Growth inhibition of human RXF393 cells assessed as cell growth at 10^-8 M incubated for 48 hrs by sulforhodamine B assay relative to control; conditions: RXF 393, 48 h, read-out: Activity

CCCCOc1nc2ccccc2cc1C1CNC(=O)c2ccccc2N1 (centres undefined)
growth at 100 µM [1]: -55%
growth at 0.1 µM [2]: 79%
growth at 100 µM [3]: -81%
growth at 10 µM [4]: 31%
growth at 1 µM [5]: 70%
growth at 0.1 µM [6]: 96%
growth at 10 µM [7]: 9%
growth at 0.1 µM [8]: 92%
growth at 1 µM [9]: 8%
growth at 0.1 µM [10]: 95%
growth at 10 µM [11]: 12%
growth at 100 µM [12]: -40%
growth at 1 µM [13]: 66%
growth at 0.1 µM [14]: 104%
growth at 0.1 µM [15]: 95%
growth at 1 µM [16]: 98%
growth at 1 µM [17]: 98%
growth at 100 µM [18]: -62%
growth at 10 µM [19]: 3%
growth at 100 µM [20]: -25%
growth at 10 µM [21]: -21%
growth at 1 µM [22]: 62%
growth at 100 µM [23]: -25%
growth at 0.1 µM [24]: 102%
growth at 0.01 µM [25]: 95%
growth at 100 µM [26]: -52%
growth at 0.01 µM [27]: 83%
growth at 0.1 µM [28]: 98%
growth at 1 µM [29]: 70%
growth at 0.01 µM [30]: 102%
growth at 100 µM [31]: -22%
growth at 1 µM [32]: 96%
growth at 0.01 µM [33]: 73%
growth at 0.01 µM [34]: 100%
